In patent US5710179A, “Antitumor agent” (priority 1995, dated 1998):
Where a name gives a salt, the structure may show the parent alone.

Tests used:
Meth A sarcoma = assay: Antitumor activity on mouse with carcinoma (Meth A sarcoma, i.p., 40 days); assay type: in vivo, BALB/c male mice; conditions: for Average day surviving: 40 days, control 28.1 ± 0.2; for Prolongation percentage of life (T/C %): control 100; for Number surviving after 40 days: group of 10, control 0
Method: About 1×10^6 cells/mouse of Meth A sarcoma was intraperitoneally injected into 8-week-old BALB/c male mice. From the next day after the administration, mice in a group of 10 were intraperitoneally injected twice a week with 0.2 ml of a physiological saline containing 0.0005, 0.005, 0.05 or 0.5 μg of any one of the compounds 1-5, and observed for 40 days. As a control, 0.2 ml/mouse/shot of physiological saline free of the compounds 1-5 was intraperitoneally injected to other groups of mice similarly as above.
Based on the data of the average day surviving (T) in the Groups of mice with the compounds 1-5 and the average day surviving (C) in the control group of mice, the prolongation percentage of life (T/C %) was calculated by the formula 1. [formula]

[1] = tested on: WiDr cell (rectum cancer); assay: Inhibition of tumor growth in nude mice, WiDr; assay type: in vivo, human; conditions: 0.05 μg/mouse s.c. twice a week
[2] = tested on: RPMI 4788 cell (colon cancer); assay: Inhibition of tumor growth in nude mice, RPMI 4788; assay type: in vivo, human; conditions: 0.05 μg/mouse s.c. twice a week
[3] = tested on: Hep G2 cell (cancer of liver); assay: Inhibition of tumor growth in nude mice, Hep G2; assay type: in vivo, human; conditions: 0.05 μg/mouse s.c. twice a week
HLC-1 cell (lung cancer) = assay: Inhibition of tumor growth in nude mice, HLC-1; assay type: in vivo, human; set-up: Average tumor weight, on a wet cell basis: unit not given here; conditions: 0.05 μg/mouse s.c. twice a week
HL-60 cell (leukemia) = assay: Inhibition of tumor growth in nude mice, HL-60; assay type: in vivo, human; conditions: 0.05 μg/mouse s.c. twice a week
human malignant tumors [4] = assay: Antitumor activity by the inhibition of tumor growth, nude mice, summary over human tumors; assay type: in vivo; conditions: 0.05 μg s.c. twice a week
Method: Based on the data of Experiment 2, a minimum dose of the compounds 1-5 to a nude mouse was estimated to be about 0.05 μg/mouse/shot, and the antitumor activity of the compounds 1-5 was tested by administering them at the above dose to nude mice transplanted with human malignant tumors.
Thereafter mice, observed the tumor cells' insertion, were grouped in a group of 7 mice, then administered twice a week with 0.2 ml of a physiological saline containing 0.05 μg of the compound 2 to the dorsal subcutaneous tissues, and observed for 25 days. As a control, mice in other group were administered in the same administration schedule with 0.2 ml/shot of physiological saline free of the compound 2.
On the 27th day after the transplantation, tumor masses formed in the nude mice were extracted and weighed, on a wet cell basis, according to the method as disclosed by Y. Shimosato and N. Tamaoki in "Jingan-to-Nude-mouse (Human Cancer and Nude Mice)", pp. 321-323 (1982), published by Ishiyaku Publishers, Inc., Tokyo, Japan, and the percentage surviving (%) on the 35th day after the transplantation was calculated.

[5] = tested on: KB cell (rhinopharynx cancer); assay: Inhibition of tumor growth in nude mice, KB; assay type: in vivo, human; conditions: 0.05 μg/mouse s.c. twice a week
[6] = tested on: HeLa cell (uterine cancer); assay: Inhibition of tumor growth in nude mice, HeLa; assay type: in vivo, human; conditions: 0.05 μg/mouse s.c. twice a week
U-937 cell (lymphoma) = assay: Inhibition of tumor growth in nude mice, U-937; assay type: in vivo, human; conditions: 0.05 μg/mouse s.c. twice a week
[7] = tested on: HGC-27 cell (gastric cancer); assay: Inhibition of tumor growth in nude mice, HGC-27; assay type: in vivo, human; conditions: 0.05 μg/mouse s.c. twice a week
[8] = tested on: G-361 cell (malignant melanoma); assay: Inhibition of tumor growth in nude mice, G-361; assay type: in vivo, human; conditions: 0.05 μg/mouse s.c. twice a week
[9] = tested on: Hep-2 cell (thyroid gland cancer); assay: Inhibition of tumor growth in nude mice, Hep-2; assay type: in vivo, human; conditions: 0.05 μg/mouse s.c. twice a week
human malignant tumors [10] = conditions: Foods & Food Ingredients Journal of Japan, Vol.160 (1994); cited from earlier work
[11] = 0.0005 μg/0.2 ml/mouse i.p. twice a week
[12] = 0.005 μg/0.2 ml/mouse i.p. twice a week
[13] = 0.05 μg/0.2 ml/mouse i.p. twice a week
[14] = 0.05 μg/0.2 ml/mouse i.p. twice a week, all marked * (significant, 5% level or lower vs control)
[15] = 0.5 μg/0.2 ml/mouse i.p. twice a week
[16] = 0.5 μg/0.2 ml/mouse i.p. twice a week, all marked * (significant, 5% level or lower vs control)

## CC(C)=CCc1cc(/C=C/C(=O)O)cc(CC=C(C)C)c1O [compound 5, potassium salt of 3-[4-hydroxy-3,5-bis(3-methyl-2-butenyl)phenyl]-2-propenoic acid]
Meth A sarcoma; [11]
  Average day surviving: 32.6 ± 0.6 days
  Prolongation percentage of life (T/C %): 116.0%
  Number surviving after 40 days: 2
Meth A sarcoma; [12]
  Average day surviving: 36.1 ± 0.5 days
  Prolongation percentage of life (T/C %): 128.5%
  Number surviving after 40 days: 6
Meth A sarcoma; [13]
  Average day surviving: 38.2 ± 0.4 days
  Number surviving after 40 days: 8
Meth A sarcoma; [14]
  Prolongation percentage of life (T/C %): 135.9%
Meth A sarcoma; [15]
  Average day surviving: 39.2 ± 0.3 days
  Number surviving after 40 days: 9
Meth A sarcoma; [16]
  Prolongation percentage of life (T/C %): 139.5%

## CC(C)=CCc1cc(/C=C/C(=O)O)cc(CC=C(C)C)c1O [compound 2, sodium salt of 3-[4-hydroxy-3,5-bis(3-methyl-2-butenyl)phenyl]-2-propenoic acid]
[1]; 27th day after transplantation, control 1.83 ± 0.85, in g (unit assumed)
  Average tumor weight, on a wet cell basis: 0.36 ± 0.02
[1]; 35th day, control 85.7
  Percentage surviving at judgement (%): 100%
[2]; 27th day after transplantation, control 2.95 ± 1.36, in g (unit assumed)
  Average tumor weight, on a wet cell basis: 0.21 ± 0.03
[2]; 35th day, control 71.4
  Percentage surviving at judgement (%): 100%
[3]; 27th day after transplantation, control 2.06 ± 0.85, in g (unit assumed)
  Average tumor weight, on a wet cell basis: 0.18 ± 0.02
[3]; 35th day, control 42.8
  Percentage surviving at judgement (%): 100%
HLC-1 cell (lung cancer); 27th day after transplantation, control 1.25 ± 0.81
  Average tumor weight, on a wet cell basis: 0.124 ± 0.06
HLC-1 cell (lung cancer); 35th day, control 71.4
  Percentage surviving at judgement (%): 100%
HL-60 cell (leukemia); 27th day after transplantation, control 1.43 ± 0.08, in g (unit assumed)
  Average tumor weight, on a wet cell basis: 0.18 ± 0.03
HL-60 cell (leukemia); 35th day, control 100
  Percentage surviving at judgement (%): 100%
Human malignant tumors [4]
  antitumor effect on human malignant tumors: strong antitumor effect
  percentage surviving on the 35th day after the transplantation: attained a desired percentage surviving
[5]; 27th day after transplantation, control 2.12 ± 0.96, in g (unit assumed)
  Average tumor weight, on a wet cell basis: 0.54 ± 0.03
[5]; 35th day, control 42.8
  Percentage surviving at judgement (%): 100%
[6]; 27th day after transplantation, control 1.36 ± 0.61, in g (unit assumed)
  Average tumor weight, on a wet cell basis: 0.54 ± 0.06
[6]; 35th day, control 100
  Percentage surviving at judgement (%): 100%
U-937 cell (lymphoma); 27th day after transplantation, control 0.99 ± 0.81, in g (unit assumed)
  Average tumor weight, on a wet cell basis: 0.25 ± 0.02
U-937 cell (lymphoma); 35th day, control 85.7
  Percentage surviving at judgement (%): 100%
Meth A sarcoma; [11]
  Average day surviving: 32.3 ± 0.8 days
  Prolongation percentage of life (T/C %): 114.9%
  Number surviving after 40 days: 2
Meth A sarcoma; [12]
  Average day surviving: 36.5 ± 0.5 days
  Prolongation percentage of life (T/C %): 129.9%
  Number surviving after 40 days: 6
Meth A sarcoma; [13]
  Average day surviving: 38.1 ± 0.1 days
  Number surviving after 40 days: 8
Meth A sarcoma; [14]
  Prolongation percentage of life (T/C %): 135.6%
Meth A sarcoma; [15]
  Average day surviving: > 40.0 days
  Number surviving after 40 days: 10
Meth A sarcoma; [16]
  Prolongation percentage of life (T/C %): 142.3%
[7]; 27th day after transplantation, control 1.86 ± 0.64, in g (unit assumed)
  Average tumor weight, on a wet cell basis: 0.35 ± 0.09
[7]; 35th day, control 85.7
  Percentage surviving at judgement (%): 100%
[8]; 27th day after transplantation, control 1.96 ± 0.98, in g (unit assumed)
  Average tumor weight, on a wet cell basis: 0.36 ± 0.02
[8]; 35th day, control 57.1
  Percentage surviving at judgement (%): 100%
[9]; 27th day after transplantation, control 2.16 ± 1.31, in g (unit assumed)
  Average tumor weight, on a wet cell basis: 0.81 ± 0.65
[9]; 35th day, control 42.8
  Percentage surviving at judgement (%): 100%

## O=c1c(O)c(-c2ccc(O)c(O)c2)oc2cc(O)cc(O)c12 [quercetin]
Human malignant tumors [10]
  antitumor activity on human malignant tumors: exerted an antitumor activity

## CC(C)=CCc1cc(/C=C/C(=O)O)cc(CC=C(C)C)c1O [compound 3, calcium salt of 3-[4-hydroxy-3,5-bis(3-methyl-2-butenyl)phenyl]-2-propenoic acid]
Meth A sarcoma; [11]
  Average day surviving: 31.1 ± 0.6 days
  Prolongation percentage of life (T/C %): 110.7%
  Number surviving after 40 days: 2
Meth A sarcoma; [12]
  Average day surviving: 35.9 ± 0.3 days
  Prolongation percentage of life (T/C %): 127.8%
  Number surviving after 40 days: 6
Meth A sarcoma; [13]
  Average day surviving: 38.9 ± 0.2 days
  Number surviving after 40 days: 8
Meth A sarcoma; [14]
  Prolongation percentage of life (T/C %): 138.4%
Meth A sarcoma; [15]
  Average day surviving: 39.0 ± 0.2 days
  Number surviving after 40 days: 9
Meth A sarcoma; [16]
  Prolongation percentage of life (T/C %): 138.8%

## CC(C)=CCc1cc(/C=C/C(=O)O)cc(CC=C(C)C)c1O [compound 1, 3-[4-hydroxy-3,5-bis(3-methyl-2-butenyl)phenyl]-2-propenoic acid]
Meth A sarcoma; [11]
  Average day surviving: 33.5 ± 0.6 days
  Prolongation percentage of life (T/C %): 119.2%
  Number surviving after 40 days: 3
Meth A sarcoma; [12]
  Average day surviving: 35.0 ± 0.9 days
  Prolongation percentage of life (T/C %): 124.6%
  Number surviving after 40 days: 5
Meth A sarcoma; [13]
  Average day surviving: 37.3 ± 0.4 days
  Number surviving after 40 days: 7
Meth A sarcoma; [14]
  Prolongation percentage of life (T/C %): 132.7%
Meth A sarcoma; [15]
  Average day surviving: 39.8 ± 0.1 days
  Number surviving after 40 days: 9
Meth A sarcoma; [16]
  Prolongation percentage of life (T/C %): 141.6%

## O=C(/C=C/c1ccc(O)c(O)c1)OCCc1ccccc1 [caffeic acid phenethyl ester]
Human malignant tumors [10]
  antitumor activity on human malignant tumors: exerted an antitumor activity

## CC(C)=CCc1cc(/C=C/C(=O)O)cc(CC=C(C)C)c1O [compound 4, magnesium salt of 3-[4-hydroxy-3,5-bis(3-methyl-2-butenyl)phenyl]-2-propenoic acid]
Meth A sarcoma; [11]
  Average day surviving: 34.9 ± 0.3 days
  Prolongation percentage of life (T/C %): 124.2%
  Number surviving after 40 days: 3
Meth A sarcoma; [12]
  Average day surviving: 35.7 ± 0.4 days
  Prolongation percentage of life (T/C %): 127.0%
  Number surviving after 40 days: 5
Meth A sarcoma; [13]
  Average day surviving: 37.5 ± 0.2 days
  Number surviving after 40 days: 7
Meth A sarcoma; [14]
  Prolongation percentage of life (T/C %): 133.5%
Meth A sarcoma; [15]
  Average day surviving: > 40.0 days
  Number surviving after 40 days: 10
Meth A sarcoma; [16]
  Prolongation percentage of life (T/C %): 142.3%
